Key:
Assay in all cases: relative viability (nuclei count vs DMSO), 5 days (fraction); higher = more cells survive
NCI-H1437 = system: NCI-H1437
Procedure, shortened: (§1)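 Lung cancer cell lines in 1536-well plates were dosed by pin tool the day after seeding, either with one drug alone or with a fixed anchor-drug dose plus five library-drug doses (not always all listed) in √10 steps. After 5 days, cells were fixed and their nuclei stained in one step (final 0.05% Triton X-100, 1% formaldehyde, 1 ug/ml Hoechst), then counted on 4× images. Relative viability is the nuclei count in treated wells divided by that in vehicle wells. Values are medians of duplicate plates.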

HCC-827 = system: HCC-827
Procedure, shortened: as §1

CAL-12T = system: CAL-12T
Procedure, shortened: as §1

NCI-H322M = system: NCI-H322M
Procedure, shortened: as §1

NCI-H23 = system: NCI-H23
Procedure, shortened: as §1

LCLC-103H = system: LCLC-103H
Procedure, shortened: as §1

201T = system: 201T
Procedure, shortened: as §1

COR-L 105 = system: COR-L 105
Procedure, shortened: as §1

LC-2-ad = system: LC-2-ad
Procedure, shortened: as §1

LK-2 = system: LK-2
Procedure, shortened: as §1

NCI-H2228 = system: NCI-H2228
Procedure, shortened: as §1

HCC-15 = system: HCC-15
Procedure, shortened: as §1

UMC-11 = system: UMC-11
Procedure, shortened: as §1

H3255 = system: H3255
Procedure, shortened: as §1

LXF-289 = system: LXF-289
Procedure, shortened: as §1

NCI-H2405 = system: NCI-H2405
Procedure, shortened: as §1

HARA = system: HARA
Procedure, shortened: as §1

BEN = system: BEN
Procedure, shortened: as §1

NCI-H2085 = system: NCI-H2085
Procedure, shortened: as §1

RERF-LC-KJ = system: RERF-LC-KJ
Procedure, shortened: as §1

LU99A = system: LU99A
Procedure, shortened: as §1

NCI-H1651 = system: NCI-H1651
Procedure, shortened: as §1

## O=C(O)CCCCC(CCSCc1ccccc1)SCc1ccccc1 (stereo not given) [CPI-613] + O=C(CCCCCCC(=O)Nc1ccccc1)NO [Vorinostat] (partner 1 µM)
NCI-H1437; first compound 5 µM
  relative viability: 0.803
NCI-H1437; first compound 15.81 µM
  relative viability: 0.637
NCI-H1437; first compound 50 µM
  relative viability: 0.689
NCI-H1437; first compound 158.11 µM
  relative viability: 0.093
NCI-H1437; first compound 500 µM
  relative viability: 0.0541
HCC-827; first compound 5 µM
  relative viability: 0.769
HCC-827; first compound 15.81 µM
  relative viability: 0.703
HCC-827; first compound 50 µM
  relative viability: 0.773
HCC-827; first compound 158.11 µM
  relative viability: 0.497
HCC-827; first compound 500 µM
  relative viability: 0.656
CAL-12T; first compound 5 µM
  relative viability: 0.674
CAL-12T; first compound 15.81 µM
  relative viability: 0.545
CAL-12T; first compound 50 µM
  relative viability: 0.708
CAL-12T; first compound 158.11 µM
  relative viability: 0.0538
CAL-12T; first compound 500 µM
  relative viability: 0.039
NCI-H322M; first compound 5 µM
  relative viability: 0.809
NCI-H322M; first compound 15.81 µM
  relative viability: 0.722
NCI-H322M; first compound 50 µM
  relative viability: 0.777
NCI-H322M; first compound 158.11 µM
  relative viability: 0.703
NCI-H322M; first compound 500 µM
  relative viability: 0.161
NCI-H23; first compound 5 µM
  relative viability: 0.612
NCI-H23; first compound 15.81 µM
  relative viability: 0.586
NCI-H23; first compound 50 µM
  relative viability: 0.591
NCI-H23; first compound 158.11 µM
  relative viability: 0.168
NCI-H23; first compound 500 µM
  relative viability: 0.0015
LCLC-103H; first compound 5 µM
  relative viability: 0.731
LCLC-103H; first compound 15.81 µM
  relative viability: 0.662
LCLC-103H; first compound 50 µM
  relative viability: 0.771
LCLC-103H; first compound 158.11 µM
  relative viability: 0.683
LCLC-103H; first compound 500 µM
  relative viability: 0.207
201T; first compound 5 µM
  relative viability: 0.961
201T; first compound 15.81 µM
  relative viability: 0.865
201T; first compound 50 µM
  relative viability: 0.958
201T; first compound 158.11 µM
  relative viability: 0.328
201T; first compound 500 µM
  relative viability: 0.368
COR-L 105; first compound 5 µM
  relative viability: 0.765
COR-L 105; first compound 15.81 µM
  relative viability: 0.675
COR-L 105; first compound 50 µM
  relative viability: 1.04
COR-L 105; first compound 158.11 µM
  relative viability: 0.375
COR-L 105; first compound 500 µM
  relative viability: 0.261
LC-2-ad; first compound 5 µM
  relative viability: 0.624
LC-2-ad; first compound 15.81 µM
  relative viability: 0.631
LC-2-ad; first compound 50 µM
  relative viability: 0.594
LC-2-ad; first compound 158.11 µM
  relative viability: 0.0484
LC-2-ad; first compound 500 µM
  relative viability: 0.0025
LK-2; first compound 5 µM
  relative viability: 0.333
LK-2; first compound 15.81 µM
  relative viability: 0.278
LK-2; first compound 50 µM
  relative viability: 0.344
LK-2; first compound 158.11 µM
  relative viability: 0.553
LK-2; first compound 500 µM
  relative viability: 0.28
NCI-H2228; first compound 5 µM
  relative viability: 0.776
NCI-H2228; first compound 15.81 µM
  relative viability: 0.402
NCI-H2228; first compound 50 µM
  relative viability: 0.559
NCI-H2228; first compound 158.11 µM
  relative viability: 0.229
NCI-H2228; first compound 500 µM
  relative viability: 0.0377
HCC-15; first compound 5 µM
  relative viability: 0.801
HCC-15; first compound 15.81 µM
  relative viability: 0.774
HCC-15; first compound 50 µM
  relative viability: 0.779
HCC-15; first compound 158.11 µM
  relative viability: 0.181
HCC-15; first compound 500 µM
  relative viability: 0.0657
UMC-11; first compound 5 µM
  relative viability: 0.355
UMC-11; first compound 15.81 µM
  relative viability: 0.358
UMC-11; first compound 50 µM
  relative viability: 0.39
UMC-11; first compound 158.11 µM
  relative viability: 0.126
UMC-11; first compound 500 µM
  relative viability: 0.1
H3255; first compound 5 µM
  relative viability: 0.765
H3255; first compound 15.81 µM
  relative viability: 0.796
H3255; first compound 50 µM
  relative viability: 0.639
H3255; first compound 158.11 µM
  relative viability: 0.821
H3255; first compound 500 µM
  relative viability: 0.716
LXF-289; first compound 5 µM
  relative viability: 0.699
LXF-289; first compound 15.81 µM
  relative viability: 0.707
LXF-289; first compound 50 µM
  relative viability: 0.722
LXF-289; first compound 158.11 µM
  relative viability: 0.483
LXF-289; first compound 500 µM
  relative viability: 0.567
NCI-H2405; first compound 5 µM
  relative viability: 1.09
NCI-H2405; first compound 15.81 µM
  relative viability: 0.79
NCI-H2405; first compound 50 µM
  relative viability: 0.787
NCI-H2405; first compound 158.11 µM
  relative viability: 0.569
NCI-H2405; first compound 500 µM
  relative viability: 0.468
HARA; first compound 5 µM
  relative viability: 0.479
HARA; first compound 15.81 µM
  relative viability: 0.529
HARA; first compound 50 µM
  relative viability: 0.506
HARA; first compound 158.11 µM
  relative viability: 0.0931
HARA; first compound 500 µM
  relative viability: 0.024
BEN; first compound 5 µM
  relative viability: 0.491
BEN; first compound 15.81 µM
  relative viability: 0.529
BEN; first compound 50 µM
  relative viability: 0.558
BEN; first compound 158.11 µM
  relative viability: 0.593
BEN; first compound 500 µM
  relative viability: 0.607
NCI-H2085; first compound 5 µM
  relative viability: 0.791
NCI-H2085; first compound 15.81 µM
  relative viability: 0.709
NCI-H2085; first compound 50 µM
  relative viability: 0.657
NCI-H2085; first compound 158.11 µM
  relative viability: 0.457
NCI-H2085; first compound 500 µM
  relative viability: 0.216
RERF-LC-KJ; first compound 5 µM
  relative viability: 0.607
RERF-LC-KJ; first compound 15.81 µM
  relative viability: 0.53
RERF-LC-KJ; first compound 50 µM
  relative viability: 0.631
RERF-LC-KJ; first compound 158.11 µM
  relative viability: 0.415
RERF-LC-KJ; first compound 500 µM
  relative viability: 0.344
LU99A; first compound 5 µM
  relative viability: 0.474
LU99A; first compound 15.81 µM
  relative viability: 0.408
LU99A; first compound 50 µM
  relative viability: 0.466
LU99A; first compound 158.11 µM
  relative viability: 0.394
LU99A; first compound 500 µM
  relative viability: 0.223
NCI-H1651; first compound 5 µM
  relative viability: 0.583
NCI-H1651; first compound 15.81 µM
  relative viability: 0.528
NCI-H1651; first compound 50 µM
  relative viability: 0.528
NCI-H1651; first compound 158.11 µM
  relative viability: 0.438
NCI-H1651; first compound 500 µM
  relative viability: 0.542

— the supplement of paper PMC10307832
